# Patent US7390870B2, “Immune-enhancing peptides” (Posco, priority 2001, dated 2008)
# No end group written: not given here.
# What was measured:
# [1] = system: human monocytes; assay: Superoxide generation in human monocytes (cytochrome c reduction assay); type: cell-based; design: activity in terms of superoxide generation among the identified peptides: dose or concentration left out as unconfirmed
# Procedure: (§1) For initial screening of the PS-SPCLs, the superoxide anion generation of each peptide pool was evaluated by measuring reduction of cytochrome c using a microtiter 96 well plate ELISA reader (Bio-Tekinstruments, EL312e, Winooski, Vt.) as described (20). The cytochrome c was purchased from Sigma (St. Louis, Mo.). The human monocytes (9×10^5 cells/100 □ of RPMI 1640 medium per well of a 96-well plate) were preincubated with 50 μM cytochrome c at 37° C. for 1 minute and then incubated with the indicated concentrations of peptide pools (final 0.5 nM per peptide sequence for the initial screening). The superoxide generation was measured as change in light absorption at 550 nm over 5 minutes at 1 minute intervals. From at least four independent experiments, peptides with active amino acids at each position were chosen. Superoxide generation by the identified peptides was measured by the same method. Spurious reduction of cytochrome c was ruled out by checking that the peptides-induced ones were superoxide dismutase-inhibitable in all experiments.
# Based on the results of the initial screening of the peptide libraries of Example 4, a peptide pool containing twelve (2×1×1×1×2×3=12) individual hexapeptides were generated by reiterative synthesis. […]
# The superoxide generated was measured using a cytochrome c reduction assay as described above. […]
# [2] = system: HL60 human promyelocytic cells; assay: [Ca2+]i increase in undifferentiated HL60 cells (fura-2); type: cell-based
# Procedure: (§2) The level of [Ca^2+]i was determined by Grynkiewicz's method using fura-2/AM (21). Briefly, prepared cells were incubated with 3 μM fura-2/AM at 37° C. for 50 minutes in a fresh serum-free RPMI 1640 medium under continuous stirring. 2×10^6 cells were aliquoted for each assay in Ca^2+-free Locke's solution (154 mM NaCl, 5.6 mM KCl1.2 mM MgCl2, 5 mM HEPES, pH 7.3, 10 mM glucose, and 0.2 mM EGTA). The fluorescence changes at the dual excitation wavelengths of 340 nm and 380 nm and the emission wavelength of 500 nm were measured, and the calibrated fluorescence ratio was translated into [Ca^2+]i.
# (§3) From the fact that HFYLPM, MFYLPM, and HFYLPm stimulate human monocytes, effects of the peptides on other leukocytes such as neutrophils were evaluated. […] The peak level of the [Ca^2+]i increase was recorded and superoxide generation was measured using cytochrome c reduction assay. […]
# A test where the three peptides on HL60 cells that had differentiated into granulocytes after having been cultured in the presence of 1.25% DMSO for 4 days was performed. […] The peak level of the [Ca^2+]i increase was recorded. […]
# [3] = system: NIH3T3 (NIH Swiss mouse embryo fibroblast); assay: [Ca2+]i rise in NIH3T3 cells (fura-2); type: cell-based; conditions: FIG. 4A; 20 μM peptide
# Procedure: as §2
# (§4) From the fact that HFYLPM, MFYLPM, and HFYLPm stimulate human monocytes, effects of the peptides on other leukocytes such as neutrophils were evaluated. Prepared human primary monocytes, neutrophils, cultured HL60, Jurkat, U937, NIH3T3, 3Y1, 3T3L1, and PC12 cells were loaded with fura-2 and stimulated with effective concentrations of the three peptides (1 μM for monocyte and neutrophil; 10 μM for HL60 and Jurkat; 20 μM for U937, NIH3T3, 3Y1, 3T3L1, and PC12). The peak level of the [Ca^2+]i increase was recorded and superoxide generation was measured using cytochrome c reduction assay. The results are shown FIG. 4. The data of FIG. 4 are presented as means ±S.E. from at least three independent experiments.
# [4] = system: 3Y1 (Rat embryonic fibroblast); assay: [Ca2+]i rise in 3Y1 cells (fura-2); type: cell-based; conditions: FIG. 4A; 20 μM peptide
# Procedure: as §2, §4
# [5] = system: human neutrophils; assay: Superoxide generation by human neutrophils (cytochrome c reduction assay); type: cell-based; conditions: FIG. 4B; 10 μM of each peptide
# Procedure: as §1, §3
# [6] = system: differentiated HL60 cells; assay: Superoxide generation in differentiated HL60 cells; type: cell-based, human; conditions: similar concentrations as for the [Ca2+]i increase
# Procedure: as §1
# A test where the three peptides on HL60 cells that had differentiated into granulocytes after having been cultured in the presence of 1.25% DMSO for 4 days was performed. HL60 cells were cultured in RPMI medium containing 20% FCS. […] The peak level of the [Ca^2+]i increase was recorded. […]
substance,measurement,setting,value
Met-Phe-Tyr-Leu-Pro-Met-CONH2 (MFYLPM-NH2),activity in terms of superoxide generation among the identified peptides,"[1]; FIG. 2A, monocytes stimulated",most active
same,"concentration of maximal activity, superoxide generation","[1]; FIG. 2B, concentration dependency",3.3 µM
same,[Ca2+]i increase in HL60 cells,"[2]; FIG. 4A, HFYLPM up to 20 μM",caused a [Ca^2+]i increase
same,[Ca2+]i rise in undifferentiated HL60 cells,"[2]; FIG. 5, various concentrations",stimulated both undifferentiated and differentiated HL60 cells
same,[Ca2+]i rise in NIH3T3 cells,[3],no response
same,[Ca2+]i rise in 3Y1 cells,[4],no response
same,superoxide generation by neutrophils,[5],generate superoxides
same,superoxide generation in differentiated HL60 cells,[6],resulted in superoxide generation
